# Experimental data taken from publication PMC9557946, “Intermittent MEK inhibition for the treatment of metastatic uveal melanoma” (Frontiers in Oncology, 2022).
# Read-outs that look alike come from different tables or passages of the source.
# How the values were obtained:
# [1] = in vivo
# Protocol: Non-compartmental analyses were performed on the data for day 1, 2, 15 and 17 using Winnonlin software (Phoenix Winnonlin 8.3.1.5014, Certara L.P., Princeton, NJ). […] Data were summarized per dose level and per occasion. Dose-exposure relationships were explored by plotting dose versus the various parameters. Accumulation was investigated using the AUC assessed at various days.
# [2] = cited from earlier work
# pERK = assay: Pharmacodynamic analysis of serial tumor biopsies (immunoblot, densitometry); type: in vivo, human
# Protocol: Serial tumor biopsies were collected from patients at baseline, on day 3, and between days 11 and 14. Flash-frozen specimens were lysed in RIPA lysis buffer. Equal amounts of protein were loaded on 4-20% PAGE gels (Invitrogen) and analyzed by immunoblotting using antibodies for pERK, ERK, cyclin D1 and α-tubulin (Cell Signaling). Signals from secondary antibodies were detected using ECL (Pierce) and autoradiography films. Densitometry analysis of each band was performed using Photoshop C6 and normalized to tubulin expression.
# [3] = system: metastatic uveal melanoma; assay: Phase Ib trial of intermittent selumetinib: clinical efficacy (RECIST v1.1, PFS, OS); type: in vivo, human
# From the text: This was a multi-center, open-label, phase Ib study conducted at Columbia University Irving Medical Center (New York, NY), University of Texas MD Anderson Cancer Center (Houston, TX), and Memorial Sloan Kettering Cancer Center (New York, NY). The primary objective of this study was to determine the maximum tolerated dose (MTD) of selumetinib administered using an intermittent dosing schedule in patients with metastatic UM. […] Exploratory objectives included pharmacodynamic (PD) assessment of target inhibition of the MEK pathway.
# Descriptive statistics were used to report baseline characteristics of the study population. The observed rate and estimated rate of DLT were reported for each dose level along with the 90% probability interval. The number and percentage of patients with adverse events were summarized taking the highest grade and reported by grade for AEs that were at least possibly related to treatment. AEs with at prevalence of least 10% were reported separately. The overall response rate (ORR) was defined as a confirmed complete response (CR) or partial response (PR) according to RECIST 1.1 criteria ([18]) and reported by dose level. Disease control rate (DCR) was defined as the percentage of patients with a confirmed CR, PR or stable disease. PFS was measured from date of enrollment until the date of progression or death, whichever occurred first. OS was defined as the time from the date of registration to the date of death by any cause.
# Imaging was obtained at baseline, at 8 weeks after start of study treatment, and then every 8 weeks thereafter. Imaging of the chest, abdomen, and pelvis was required at each time point, with contrast enhanced MRI of the liver performed whenever possible. Response was assessed using RECIST v.1.1 criteria by investigator assessment. Criteria for removal from study included radiographic or clinical disease progression, or unacceptable toxicity.
# [4] = system: metastatic uveal melanoma; settings: ref [10], cited from earlier work
# [5] = All Levels, investigator assessed RECIST v1.1
# [6] = Level 1 (100 mg BID), investigator assessed RECIST v1.1
# [7] = Level 2 (125 mg BID), investigator assessed RECIST v1.1
# [8] = Level 3 (150 mg BID), investigator assessed RECIST v1.1
# [9] = Level 4 (175 mg BID), investigator assessed RECIST v1.1
smiles,measurement,setting,value
Cn1cnc2c(F)c(Nc3ccc(Br)cc3Cl)c(C(=O)NOCCO)cc21 [selumetinib],AUC0-4h,"[1]; human, 100 mg",2903 ± 461 (6) h*ng/mL
same,AUC0-8h,"[1]; human, 100 mg",4265 ± 628 (2) h*ng/mL
same,CL/F,"[1]; human, 100 mg",20.9 ± 3.7 (2) L/h
same,Cmax,"[1]; human, 100 mg",1453 ± 530 (6) ng/mL
same,Tmax,"[1]; human, 100 mg",1.7 ± 0.5 (6) h
same,t½,"[1]; human, 100 mg",2.4 ± 0.3 (2) h
same,AUC0-4h,"[1]; human, 125 mg",4270 ± 1470 (56) h*ng/mL
same,AUC0-8h,"[1]; human, 125 mg",6042 ± 2210 (29) h*ng/mL
same,CL/F,"[1]; human, 125 mg",18.7 ± 8.1 (26) L/h
same,Cmax,"[1]; human, 125 mg",2115 ± 798 (56) ng/mL
same,intra-patient coefficient of variation for AUC0-8h,"[1]; human, 125 mg",11.3%
same,intra-patient coefficient of variation for Cmax,"[1]; human, 125 mg",25.3%
same,t½,"[1]; human, 125 mg",4.3 ± 5.7 (26) h
same,AUC0-4h,"[1]; human, 150 mg",6073 ± 1540 (8) h*ng/mL
same,AUC0-8h,"[1]; human, 150 mg",6683 ± 729 (4) h*ng/mL
same,CL/F,"[1]; human, 150 mg",14.8 ± 7.6 (8) L/h
same,Cmax,"[1]; human, 150 mg",3041 ± 1155 (8) ng/mL
same,t½,"[1]; human, 150 mg",7.9 ± 9.1 (3) h
same,accumulation,[1],little to no accumulation
same,continuous dose MTD,[2]; continuous dosing schedule,75 mg BID
same,mean half-life,"[2]; prior knowledge, no reference given",5 to 8 h
same,mean reduction in pERK expression,"pERK; day 3 of first cycle (on treatment) vs baseline, n=9",41.3%
same,mean increase in pERK expression from day 3,"pERK; day 11-14, off-treatment window",69.3%
same,cases with at least partial pERK recovery,"pERK; day 11-14 off treatment, of 9 patients",7 cases
same,median PFS,[3]; 125mg twice daily cohort,1.7 months
same,Complete Response (CR),[3]; [5],0
same,Partial Response (PR),[3]; [5],0
same,Median duration of Stable Disease,[3]; Level 1 (100 mg BID),7.1 months
same,Complete Response (CR),[3]; [6],0
same,Overall Response Rate (ORR),[3]; [6],0
same,Partial Response (PR),[3]; [6],0
same,Median Time to Progression (range),"[3]; Level 1 (100 mg BID), range 1.2-10.8",3.4 months (1.2-10.8)
same,Median duration of Stable Disease,[3]; Level 2 (125 mg BID),4.1 months
same,Complete Response (CR),[3]; [7],0
same,Overall Response Rate (ORR),[3]; [7],0
same,Partial Response (PR),[3]; [7],0
same,Median Time to Progression (range),"[3]; Level 2 (125 mg BID), range 0.9-5.5",1.7 months (0.9-5.5)
same,Median duration of Stable Disease,[3]; Level 3 (150 mg BID),4.9 months
same,Complete Response (CR),[3]; [8],0
same,Overall Response Rate (ORR),[3]; [8],0
same,Partial Response (PR),[3]; [8],0
same,Median Time to Progression (range),"[3]; Level 3 (150 mg BID), range 0.9-6.2",3.7 months (0.9-6.2)
same,Complete Response (CR),[3]; [9],0
same,Overall Response Rate (ORR),[3]; [9],0
same,Partial Response (PR),[3]; [9],0
same,"Progressive Disease (PD), patients/total (%)",[3]; [9],0
same,ORR,"[3]; all 29 patients, RECIST v1.1",0%
same,"best response of stable disease, percent of patients","[3]; at 8 weeks from treatment initiation, n=11 of 29",38%
same,median progression-free response by cohort,[3]; range across dose cohorts,1.7-3.7 months
same,median PFS,"[3]; total population (29 patients), 95% CI 1.7, 4.5",1.8 months
same,median OS,"[3]; total population (29 patients), 95% CI 5.3, 11.5",7.1 months
same,median PFS,"[4]; SELPAC, selumetinib 75 mg BID",3.4 months
same,ORR,"[4]; SelPac, 77 patients",4%
same,median OS,"[4]; SelPac, 77 patients",10 months
